Assay results reported in patent publication US20150031765A1, “TREATMENT OF COGNITIVE IMPAIRMENT” (priority 2011, published 2015).
Structures can show the parent of a compound that is named as a salt.

How the values were obtained:
[1] = test system: scopolamine induced learning and memory deficit; test: Morris water maze test, scopolamine induced learning and memory deficit in rats; assay type: in vivo, Sprague-Dawley male rats; settings: for average time to locate the submerged platform: Day 1 of acquisition trials, whole group
Protocol: The Morris water maze test is a classical cognitive test for evaluation of spatial learning and memory in rodents. […] 60 Sprague-Dawley male rats were used in the present study. The animals were housed in cages in groups of four rats per cage. All rats were fed with food and water ad libitum. The testing apparatus can be described as follows. A circular pool was filled with water (24±1° C.) to the depth of 30 cm. […] Four start positions were at the perimeter of the pool: the first one in the first quadrant, the second one in the second quadrant, the third one in the third quadrant and the last one in the fourth quadrant. The rats were trained to escape from water by swimming to a hidden platform whose location was only identified using visual cues attached to the curtain around the pool. Visual cues had different colors and dimensions and were kept constant during the whole experiment. All rats were trained in the swimming pool for 60 seconds without the platform. […] The training procedure included 4 trials per day with 4 different and randomized starting positions. In each trial, the time of rat to reach the platform (escape latency) was recorded, and then the rat was allowed to stay on the platform for 15 seconds. […] The experimental group setting is described in Table 3. […] For practical reasons, the study was divided into two sessions (Table 4). Each session included 6 groups, and each group included 5 rats. Each session took 10 days to complete. […] On day 6, each rat was placed in the swimming pool with no platform to locate the platform site for 60 seconds. […] Any Maze software was used for video tracking and data collection during the whole acquisition trial and probe trial. In acquisition trial, escape latency was recorded. In probe trial, time spent in target and swimming speed was recorded. Data were analyzed and graphed by Graph Pad Prism 5.

[2] = test system: memory dysfunction of scopolamine-treated rats; settings: Morris water maze test; cited from earlier work
[3] = Day 1, session 1, 250 mg/kg po + scopolamine 0.5 mg/kg ip
[4] = Day 1, session 2, 250 mg/kg po + scopolamine 0.5 mg/kg ip
[5] = Day 2, session 1, 250 mg/kg po + scopolamine 0.5 mg/kg ip
[6] = Day 2, session 2, 250 mg/kg po + scopolamine 0.5 mg/kg ip
[7] = Day 3, session 1, 250 mg/kg po + scopolamine 0.5 mg/kg ip
[8] = Day 3, session 2, 250 mg/kg po + scopolamine 0.5 mg/kg ip
[9] = Day 4, session 1, 250 mg/kg po + scopolamine 0.5 mg/kg ip
[10] = Day 4, session 2, 250 mg/kg po + scopolamine 0.5 mg/kg ip
[11] = Day 5, session 1, 250 mg/kg po + scopolamine 0.5 mg/kg ip
[12] = Day 5, session 2, 250 mg/kg po + scopolamine 0.5 mg/kg ip
[13] = Day 6, session 1, 250 mg/kg po + scopolamine 0.5 mg/kg ip on days 1-5
[14] = Day 6, session 2, 250 mg/kg po + scopolamine 0.5 mg/kg ip on days 1-5, in s

C[C@@]12CC[C@@H]3[C@@](CC[C@H]4[C@@]3(C)CCC[C@@]4(C)C(=O)O)(CC1=O)C2 (single isomer, unassigned; ent-16) [Isosteviol, ent-16-ketobeyeran-19-oic acid]
effect on learning and memory deficit induced by scopolamine, probe trials (in words) ([1]; 80 mg/kg): significantly attenuated
effect on learning and memory deficit induced by scopolamine, probe trials (in words) ([1]; 250 mg/kg): not
Latency to escape in acquisition trial ([1]; Day 1, session 1, 80 mg/kg po + scopolamine 0.5 mg/kg ip): 46.46 ± 4.50 s
Latency to escape in acquisition trial [1, 3]: 46.16 ± 2.48 s
Latency to escape in acquisition trial ([1]; Day 1, session 2, 80 mg/kg po + scopolamine 0.5 mg/kg ip): 45.20 ± 6.40 s
Latency to escape in acquisition trial [1, 4]: 48.46 ± 4.49 s
average time to locate the submerged platform ([1]; 80 mg/kg po + scopolamine): 45.83 ± 3.70 s
average time to locate the submerged platform ([1]; 250 mg/kg po + scopolamine): 47.31 ± 2.45 s
Latency to escape in acquisition trial ([1]; Day 2, session 1, 80 mg/kg po + scopolamine 0.5 mg/kg ip): 45.24 ± 7.87 s
Latency to escape in acquisition trial [1, 5]: 43.94 ± 5.18 s
Latency to escape in acquisition trial ([1]; Day 2, session 2, 80 mg/kg po + scopolamine 0.5 mg/kg ip): 41.88 ± 3.19 s
Latency to escape in acquisition trial [1, 6]: 50.76 ± 3.90 s
Latency to escape in acquisition trial ([1]; Day 3, session 1, 80 mg/kg po + scopolamine 0.5 mg/kg ip): 40.42 ± 5.48 s
Latency to escape in acquisition trial [1, 7]: 48.62 ± 5.64 s
Latency to escape in acquisition trial ([1]; Day 3, session 2, 80 mg/kg po + scopolamine 0.5 mg/kg ip): 36.04 ± 5.50 s
Latency to escape in acquisition trial [1, 8]: 40.42 ± 4.57 s
Latency to escape in acquisition trial ([1]; Day 4, session 1, 80 mg/kg po + scopolamine 0.5 mg/kg ip): 37.84 ± 4.36 s
Latency to escape in acquisition trial [1, 9]: 44.36 ± 6.54 s
Latency to escape in acquisition trial ([1]; Day 4, session 2, 80 mg/kg po + scopolamine 0.5 mg/kg ip): 38.74 ± 5.25 s
Latency to escape in acquisition trial [1, 10]: 41.58 ± 6.33 s
Latency to escape in acquisition trial ([1]; Day 5, session 1, 80 mg/kg po + scopolamine 0.5 mg/kg ip): 27.14 ± 4.30 s
Latency to escape in acquisition trial [1, 11]: 41.44 ± 7.24 s
Latency to escape in acquisition trial ([1]; Day 5, session 2, 80 mg/kg po + scopolamine 0.5 mg/kg ip): 33.38 ± 6.04 s
Latency to escape in acquisition trial [1, 12]: 35.24 ± 7.74 s
Time spent in target quadrant in probe trial ([1]; Day 6, session 1, 80 mg/kg po + scopolamine 0.5 mg/kg ip on days 1-5): 19.80 ± 1.19 s
Time spent in target quadrant in probe trial [1, 13]: 16.00 ± 2.37 s
Time spent in target quadrant in probe trial ([1]; Day 6, session 2, 80 mg/kg po + scopolamine 0.5 mg/kg ip on days 1-5, in s): 17.28 ± 1.11
Time spent in target quadrant in probe trial [1, 14]: 16.50 ± 1.61
visible behavioral abnormalities ([1]; Morris water maze study): no visible behavioral abnormalities

CN1[C@@H]2C[C@@H](OC(=O)[C@H](CO)c3ccccc3)C[C@H]1[C@@H]1O[C@@H]12 [Scopolamine]
average time to locate the submerged platform ([1]; scopolamine 0.5 mg/kg ip alone): 46.11 ± 2.98 s
latency to the submerged platform in acquisition trials (effect in words) ([1]; Day 5, scopolamine 0.5 mg/kg): significantly increased
Time spent in target quadrant in probe trial ([1]; Day 6, session 1, scopolamine 0.5 mg/kg ip alone (0.5% MC po) on days 1-5): 15.70 ± 1.42 s
Time spent in target quadrant in probe trial ([1]; Day 6, session 2, scopolamine 0.5 mg/kg ip alone (0.5% MC po) on days 1-5, in s): 12.30 ± 1.24
time to locate in target quadrant in probe trials (effect in words) ([1]; scopolamine 0.5 mg/kg): reduced

C=C1C[C@@]23CC[C@H]4[C@@](C)(CCC[C@@]4(C)C(=O)O[C@@H]4O[C@H](CO)[C@@H](O)[C@H](O)[C@H]4O)[C@@H]2CC[C@]1(O[C@@H]1O[C@H](CO)[C@@H](O)[C@H](O)[C@H]1O[C@@H]1O[C@H](CO)[C@@H](O)[C@H](O)[C@H]1O)C3 [Stevioside]
effect on learning and memory deficit induced by scopolamine, probe trials (in words) ([1]; 250 mg/kg): significantly reversed
Latency to escape in acquisition trial [1, 3]: 44.98 ± 5.53 s
Latency to escape in acquisition trial [1, 4]: 46.48 ± 3.66 s
average time to locate the submerged platform ([1]; 250 mg/kg po + scopolamine): 45.73 ± 3.14 s
Latency to escape in acquisition trial [1, 5]: 45.78 ± 6.95 s
Latency to escape in acquisition trial [1, 6]: 40.44 ± 3.63 s
Latency to escape in acquisition trial [1, 7]: 44.80 ± 5.46 s
Latency to escape in acquisition trial [1, 8]: 39.46 ± 9.62 s
Latency to escape in acquisition trial [1, 9]: 41.74 ± 6.39 s
Latency to escape in acquisition trial [1, 10]: 35.78 ± 4.95 s
Latency to escape in acquisition trial [1, 11]: 30.86 ± 6.57 s
Latency to escape in acquisition trial [1, 12]: 31.08 ± 3.33 s
Time spent in target quadrant in probe trial [1, 13]: 20.78 ± 3.75 s
Time spent in target quadrant in probe trial [1, 14]: 21.10 ± 2.16
effect in cognitive deficits of rats (in words) [2]: memory-preservative effect

COc1cc2c(cc1OC)C(=O)C(CC1CCN(Cc3ccccc3)CC1)C2 (stereo not drawn) [Donepezil, Donepezil hydrochloride]
effect on learning and memory deficit induced by scopolamine, probe trials (in words) ([1]; 0.1 mg/kg, vs scopolamine only group): significantly attenuated
Latency to escape in acquisition trial ([1]; Day 1, session 1, 0.1 mg/kg ip + scopolamine 0.5 mg/kg ip): 48.52 ± 5.50 s
Latency to escape in acquisition trial ([1]; Day 1, session 2, 0.1 mg/kg ip + scopolamine 0.5 mg/kg ip): 45.44 ± 5.40 s
average time to locate the submerged platform ([1]; 0.1 mg/kg ip + scopolamine): 46.98 ± 3.67 s
Latency to escape in acquisition trial ([1]; Day 2, session 1, 0.1 mg/kg ip + scopolamine 0.5 mg/kg ip): 44.50 ± 2.48 s
Latency to escape in acquisition trial ([1]; Day 2, session 2, 0.1 mg/kg ip + scopolamine 0.5 mg/kg ip): 43.18 ± 7.85 s
Latency to escape in acquisition trial ([1]; Day 3, session 1, 0.1 mg/kg ip + scopolamine 0.5 mg/kg ip): 35.92 ± 8.22 s
Latency to escape in acquisition trial ([1]; Day 3, session 2, 0.1 mg/kg ip + scopolamine 0.5 mg/kg ip): 37.06 ± 4.26 s
Latency to escape in acquisition trial ([1]; Day 4, session 1, 0.1 mg/kg ip + scopolamine 0.5 mg/kg ip): 36.04 ± 4.78 s
Latency to escape in acquisition trial ([1]; Day 4, session 2, 0.1 mg/kg ip + scopolamine 0.5 mg/kg ip): 34.20 ± 6.89 s
Latency to escape in acquisition trial ([1]; Day 5, session 1, 0.1 mg/kg ip + scopolamine 0.5 mg/kg ip): 26.86 ± 3.09 s
Latency to escape in acquisition trial ([1]; Day 5, session 2, 0.1 mg/kg ip + scopolamine 0.5 mg/kg ip): 30.50 ± 5.78 s
Time spent in target quadrant in probe trial ([1]; Day 6, session 1, 0.1 mg/kg ip + scopolamine 0.5 mg/kg ip on days 1-5): 18.84 ± 3.22 s
Time spent in target quadrant in probe trial ([1]; Day 6, session 2, 0.1 mg/kg ip + scopolamine 0.5 mg/kg ip on days 1-5, in s): 19.40 ± 1.09
